Reference: patent publication US20140140969A1, “METHODS AND COMPOSITIONS FOR MUSCULAR DYSTROPHIES” (Sangamo BioSciences, Inc., priority 2012, published 2014)

Assays:
[1] = system: CCR5-specific ZFN pair (exon 3) (artificial); assay: cell_activity; settings: Cel-1 assay in human myoblasts; cleavage over 30%
human myoblasts = assay: In vitro selection of MGMT^P140K-2A-GFP gene-targeted myoblasts with BG/BCNU; type: cell-based
Description: Consequently, we next verified whether expression from the integrated MGMT^P140K gene, along with the eGFP reporter gene to facilitate tracking of transduced cells, was sufficient to confer myoblasts protection against treatments with BG and BCNU (FIG. 4A). Using IDLV to deliver a MGMT^P140K-eGFP template DNA flanked by CCR5 homology arms, we obtained 40-50% gene addition in myoblasts in the absence of drug selection (FIG. 4B and C). However, to fully evaluate the selection potential of the BG/BCNU combination, we thought it would be more appropriate to work with a population containing a much lower level of gene addition. As such, we generated two populations of gene-targeted myoblasts containing either 3% or 35% of cells expressing the MGMT^P140K-2A-GFP gene using non-transduced cells for dilution. Both populations were exposed to 20 μM BG for one hour followed by increasing doses of BCNU (10, 25, 50 and 100 μM) for two hours (FIG. 4D).
Myoblasts were then allowed to recover for one week after which the proportion of eGFP positive cells was analyzed by flow cytometry, a procedure defined as one cycle of drug selection. […] After three cycles of selection using the same concentration of BCNU, up to 45% of the myoblasts were positive for eGFP, representing a 15-fold enrichment over the initial population. […] In comparison, when starting with a population containing already 35% of gene-targeted myoblasts, over 85% of the cells were expressing eGFP after only one cycle of selection using 50 μM of BCNU (FIG. 4D).
Four weeks post-transduction, gene modified myoblasts containing the MGMT^P140K-2A-GFP cassette inserted at the endogenous CCR5 locus were treated with 50 μM O6BG for two hours followed by increasing doses (range from 10-100 μM) of BCNU for one hour. Cells were then washed with PBS and allowed to proliferate in the presence of […] for seven days before being analyzed by FACS. Where indicated, this procedure was repeated up to two more times. Cells were maintained in the presence of O6BG during their post-treatment expansion to inactivate the endogenous MGMT gene.

[2] = starting population 3%, three cycles, 100 μM BCNU

In the case of CCR5 locus exon 3 ZFN target, the activity [1] is reported as greater than 30%.

In the case of O=NN(CCCl)C(=O)NCCCl [BCNU, 1,3-bis(2-chloroethyl)-N-nitrosourea], the “effect of additional cycle of selection” value (human myoblasts; starting population 3%, beyond three cycles) is reported as “did not allow us to further increase the proportion of eGFP positive cells”, the “proportion of MGMT^P140K-2A-GFP expressing cells” value (human myoblasts; starting population 3%, one cycle, 20 μM BG then 100 μM BCNU) is reported as 11% and the “enrichment over the initial population” value (human myoblasts; [2]) is reported as 15 fold. For the same compound, the “proportion of myoblasts positive for eGFP” value (human myoblasts; [2]) was “up to 45%” and the “proportion of cells expressing eGFP” value (human myoblasts; starting population 35%, one cycle, 50 μM BCNU) was “over 85%”.
